The text below walks through data of paper PMC4667193 (Scientific Reports, 2015).

Data set [1] has as its system rat primary hippocampal cell culture. The data set can be described thus: MTT viability assay, AEME-induced neurotoxicity. Format: cell-based. The following applies: 10 nM antagonist/inhibitor added 30 minutes prior to 10^−3 M AEME, 24 hours, % of control. The protocol: Neuronal viability was evaluated in the hippocampal cell culture using the 3-(4,5-dimethylthiazol-2-yl)-2,5-diphenyltetrazolium bromide (MTT; Sigma) reduction assay, with some modification. Briefly, after 24 hours of incubation with 10^−3 M AEME in the absence and in the presence of 10 nM pirenzepine hydrochloride (M1 selective antagonist; Sigma), 10 nM p-F-HHSiD (M3 selective antagonist; Sigma) and the specific inhibitor of different isoforms of PLC U73122 (10 nM)[55] (Sigma), all the medium was removed, and 100 μL of MTT solution, containing 5 mg/mL MTT in PBS and neurobasal medium without phenol red (1:9, v/v) were added. After 3 hours of incubation with MTT at 37 °C in a humidified atmosphere of 5% CO2, the MTT solution was removed and 200 μL of dimethyl sulfoxide was added to each well. After 30 minutes of shaking, the absorbance was measured at 570 nm in a multiwell plate reader (BioTek Synergy H1 Hybrid Reader). Potassium chloride (250 mM) was used as a positive control of neuronal death. Muscarinic antagonists, as well as the iPLC, were added 30 minutes prior to incubation with AEME. The antagonist concentration used was near the pKi[25][56]. A control containing 0.002% DMSO was used, since the iPLC stock solution was previously dissolved in this solvent. The assay was performed in quadruplicate, and the results were expressed as a percentage of the control value.

Data set [2] has the same test system. The data set can be described thus: total [^3H]inositol phosphate accumulation in hippocampal cells. The data set is classed as cell-based. The following applies: 10^−8 to 10^−3 M. On the procedure: Hippocampal cells (1 × 10^6 cells/well) were allowed to equilibrate for 10 minutes with a nutrient solution of the following composition (mM): NaCl 157.00; KCl 5.60; CaCl2 0.27; MgCl2 3.00; NaHCO3 1.80; glucose 5.50 (pH 7.0–7.2) at 37 °C under constant shaking. Cells were incubated with 5 μCi of myo[^3H]inositol (specific activity 18.0 Ci/mmol) for 80 minutes, and lithium chloride (10 mM) for additional 30 minutes. Afterwards, the cells were incubated in the absence (basal level) and in the presence of carbachol (positive control) and AEME (10^−8 to 10^−3 M) for 10 minutes. Cells were removed from the plate using a 0.1 M NaOH solution and washed three times with nutrient solution, transferred to 2 mL of methanol:chloroform (2:1 v-v) at 4 °C and homogenized with a Ultra-Turrax T25 homogenizer at 9500 rpm. Chloroform (0.62 mL) and H2O (0.93 mL) were added to the homogenate, and the solution was centrifuged for 5 minutes at 1,000× g to separate aqueous and organic phases. Total [^3H]inositol phosphate was measured as previously described by Ascoli et al.[45] with slight modification. The aqueous layer was neutralized with 0.1 M HCl and then mixed with 1 mL anion-exchange resin (Dowex AG-X8, formate form, 200–400 mesh), allowed to equilibrate for 30 minutes at room temperature, under agitation, and centrifugated at 1,000× g, for 5 minutes at 4 °C. The resin was then washed sequentially, with 10 mM myo-inositol (2 mL) and 5 mM sodium tetraborate/60 mM sodium formate (2 mL). The resin was incubated for 30 minutes at room temperature with 2 mL of 0.1 M formic acid/1 M ammonium formate). The total [^3H]inositol phosphate was eluted and placed in scintillation vials containing OptiPhase HiSafe 3. The amount of radioactivity was determined in scintillation β-counter (LS 6500 IC, Beckman). Total [^3H]inositol phosphate was expressed as percentage above basal level.

With `COc1ccc2c(c1)CC[C@@H]1[C@@H]2CC[C@]2(C)[C@@H](NCCCCCCN3C(=O)C=CC3=O)CC[C@@H]12` [U73122], the viable cells in data set [1] is 102.6%.

As to `Cl.O[Si](CCCN1CCCCC1)(c1ccc(F)cc1)C1CCCCC1` (centres unmarked) [p-F-HHSiD, p-fluorohexahydro-sila-difenidol hydrochloride], the viable cells in data set [1] was 85.4%.

For `CN1CCN(CC(=O)N2c3ccccc3C(=O)Nc3cccnc32)CC1` [pirenzepine], the viable cells in data set [1] is 98.4%.

In the case of `C[N+](C)(C)CCOC(N)=O` [carbachol, reference compound], in data set [2], the “effect on total [^3H]inositol phosphate” value is “concentration-dependent increase”. The “concentration giving maximum inositol phosphate accumulation” value in data set [2] (10 minutes) is listed as 10^−5 M.
